Source: patent US8912188B2, “Substituted quinoxaline carboxylic acids for the inhibition of PASK” (BioEnergenix, LLC, priority 2011, dated 2014)

How the values were obtained:
PASK (Invitrogen) = target: T1, PASK (Invitrogen) (Homo sapiens, UniProt Q96RG2); test: PAS Kinase FRET Assay; type: biochemical; conditions: PAS kinase TR-FRET assay (665 nm/615 nm), 2 hours at 25° C.; read-out: IC50 Kinase Domain
T1 construct: IC50 Kinase Domain; purchased Invitrogen

PASK = target: T2, PASK (UniProt #Q96RG2; human recombinant N-terminal GST tagged construct, residues 879-1323) (Homo sapiens, UniProt Q96RG2); test: PASK ATP Radiochemical Assay; type: biochemical; conditions: 33P-ATP, Myelin Basic Protein substrate, 120 min at room temperature, read-out: IC50 Kinase Domain
T2 construct: human recombinant N-terminal GST tagged construct, residues 879-1323; GST (N); host or cells: insect cells
Procedure: Biochemical Assay for hPASK Activity
PASK ATP Radiochemical Assay
Test compounds in DMSO are then added and the mixture, followed by delivery of ^33P-ATP (specific activity 0.01 μCi/μl final) to initiate the reaction. […] The entire reaction mixture is washed through onto a P81 Phosphocellulose paper and washed three times for 10 minutes in 75 mM phosphoric acid and once in methanol prior to drying and scintillation counting.

T1 sequence (Q96RG2 999-1251 limits assumed): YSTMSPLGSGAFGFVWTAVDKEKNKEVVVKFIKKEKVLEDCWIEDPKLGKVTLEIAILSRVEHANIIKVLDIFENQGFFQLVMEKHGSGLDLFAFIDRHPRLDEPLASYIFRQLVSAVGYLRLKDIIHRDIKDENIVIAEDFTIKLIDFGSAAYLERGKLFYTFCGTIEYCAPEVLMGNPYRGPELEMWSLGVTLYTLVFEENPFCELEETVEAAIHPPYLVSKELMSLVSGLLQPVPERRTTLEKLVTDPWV
T2 sequence (Q96RG2 879-1323, stated change not applied): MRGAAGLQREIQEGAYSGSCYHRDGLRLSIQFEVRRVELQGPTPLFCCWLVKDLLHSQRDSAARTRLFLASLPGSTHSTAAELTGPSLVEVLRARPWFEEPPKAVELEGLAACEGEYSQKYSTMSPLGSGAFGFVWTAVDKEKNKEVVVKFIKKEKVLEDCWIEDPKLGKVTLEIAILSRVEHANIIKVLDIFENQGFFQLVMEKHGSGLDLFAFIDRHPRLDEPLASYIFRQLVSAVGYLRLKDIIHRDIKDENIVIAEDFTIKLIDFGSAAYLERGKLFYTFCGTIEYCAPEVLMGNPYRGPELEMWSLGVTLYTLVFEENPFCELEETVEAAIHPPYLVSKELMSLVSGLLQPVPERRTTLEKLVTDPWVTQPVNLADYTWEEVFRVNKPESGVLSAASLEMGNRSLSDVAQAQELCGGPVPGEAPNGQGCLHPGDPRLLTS

IC50 (PASK (Invitrogen)) [µM]	IC50 (PASK) [µM]	Compound
< 10	< 10	Cc1c[nH]c2ccc(-c3nc4ccc(C(=O)O)cc4nc3N(C)C(C)C)cc12 [Example 86, 3-(Isopropyl(methyl)amino)-2-(3-methyl-1H-indol-5-yl)quinoxaline-6-carboxylic acid]
< 10	< 10	C[C@@H]1CCCN1c1nc2cc(C(=O)O)ccc2nc1-c1ccc2c(c1)OCO2 [Example 87, (R)-2-(Benzo[d][1,3]dioxol-5-yl)-3-(2-methylpyrrolidin-1-yl)quinoxaline-6-carboxylic acid]
< 10	< 10	Cc1cc2cc(-c3nc4ccc(C(=O)O)cc4nc3N3CCCC[C@@H]3C)ccc2[nH]1 [Example 88, (S)-2-(2-Methyl-1H-indol-5-yl)-3-(2-methylpiperidin-1-yl)quinoxaline-6-carboxylic acid]
< 10	< 10	Cc1cc2cc(-c3nc4ccc(C(=O)O)cc4nc3N(C)C3CC3)ccc2[nH]1 [Example 89, 3-[Cyclopropyl(methyl)amino]-2-(2-methyl-1H-indol-5-yl)quinoxaline-6-carboxylic acid]
< 10	< 10	C[C@H]1CCCN1c1nc2cc(C(=O)O)c(O)cc2nc1-c1ccc2[nH]ncc2c1 [Example 93, (S)-7-Hydroxy-2-(1H-indazol-5-yl)-3-(2-methylpyrrolidin-1-yl)quinoxaline-6-carboxylic acid]
< 10	< 10	CC[C@H](C)N(C)c1nc2cc(C(=O)O)ccc2nc1-c1ccc(F)cc1 [Example 104, (S)-3-(sec-Butyl(methyl)amino)-2-(4-fluorophenyl)quinoxaline-6-carboxylic acid]
< 10	< 10	O=C(O)c1ccc2nc(-c3ccc(F)cc3)c(N3CCCC[C@@H]3C(F)(F)F)nc2c1 [Example 106, 2-(4-Fluorophenyl)-3-[(2R)-2-(trifluoromethyl)piperidin-1-yl]quinoxaline-6-carboxylic acid]
< 10	< 10	CN(c1nc2cc(C(=O)O)ccc2nc1-c1ccc(F)cc1)C(C)(C)C [Example 107, 3-(tert-Butyl(methyl)amino)-2-(4-fluorophenyl)quinoxaline-6-carboxylic acid]
< 10	< 10	CN(c1nc2cc(C(=O)O)ccc2nc1-c1ccc(F)cc1)C1CCCCC1 [Example 108, 3-(Cyclohexyl(methyl)amino)-2-(4-fluorophenyl)quinoxaline-6-carboxylic acid]
< 10	< 10	CCN(c1nc2cc(C(=O)O)ccc2nc1-c1ccc(F)cc1)C(C)C [Example 111, 3-(Ethyl(isopropyl)amino)-2-(4-fluorophenyl)quinoxaline-6-carboxylic acid]
< 10	< 10	CCN(c1nc2cc(C(=O)O)ccc2nc1-c1ccc(F)cc1)C1CCCCC1 [Example 112, 3-[Cyclohexyl(ethyl)amino]-2-(4-fluorophenyl)quinoxaline-6-carboxylic acid]
< 10	< 10	CCN(CC)c1nc2cc(C(=O)O)ccc2nc1-c1ccc(F)cc1 [Example 113, 3-(Diethylamino)-2-(4-fluorophenyl)quinoxaline-6-carboxylic acid]
< 10	< 10	C[C@H]1CCCN1c1nc2cc(C(=O)O)ccc2nc1-c1ccc(F)cc1F [Example 115, (S)-2-(2,4-Difluorophenyl)-3-(2-methylpyrrolidin-1-yl)quinoxaline-6-carboxylic acid]
< 10	< 10	C[C@H]1CCCCN1c1nc2cc(C(=O)O)ccc2nc1-c1ccc(F)cc1F [Example 116, (S)-2-(2,4-Difluorophenyl)-3-(2-methylpiperidin-1-yl)quinoxaline-6-carboxylic acid]
< 10	< 10	CC(C)N(C)c1nc2cc(C(=O)O)c(O)cc2nc1-c1ccc(F)cc1 [Example 120, 2-(4-Fluorophenyl)-7-hydroxy-3-(isopropyl(methyl)amino)quinoxaline-6-carboxylic acid]
< 10	< 10	C[C@@H]1CCCCN1c1nc2cc(C(=O)O)ccc2nc1-c1ccc(F)cc1 [Example 121, (R)-2-(4-Fluorophenyl)-3-(2-methylpiperidin-1-yl)quinoxaline-6-carboxylic acid]
< 10	< 10	CN(c1nc2cc(C(=O)O)ccc2nc1-c1ccc(F)cc1)C1CCCC1 [Example 135, 3-(Cyclopentyl(methyl)amino)-2-(4-fluorophenyl)quinoxaline-6-carboxylic acid]
< 10	< 10	CCCN(CCC)c1nc2cc(C(=O)O)ccc2nc1-c1ccc(F)cc1 [Example 140, 3-(Dipropylamino)-2-(4-fluorophenyl)quinoxaline-6-carboxylic acid]
< 10	< 10	CN(c1nc2cc(C(=O)O)ccc2nc1-c1ccc(F)cc1)C1CCC1 [Example 146, 3-(Cyclobutyl(methyl)amino)-2-(4-fluorophenyl)quinoxaline-6-carboxylic acid]

Second part, the molecule before the results:

Compound	IC50 (PASK (Invitrogen)) [µM]	IC50 (PASK) [µM]
CC(C)N(C)c1nc2cc(C(=O)O)ccc2nc1-c1cc(-c2ccccc2)co1 [Example 52, 3-[Methyl(propan-2-yl)amino]-2-(4-phenylfuran-2-yl)quinoxaline-6-carboxylic acid]	< 10	< 10
C[C@H]1CCCN1c1nc2cc(C(=O)O)ccc2nc1-c1cc2cc(F)ccc2s1 [Example 55, (S)-2-(5-Fluorobenzo[b]thiophen-2-yl)-3-(2-methylpyrrolidin-1-yl)quinoxaline-6-carboxylic acid]	< 10	< 10
C[C@H]1CCCN1c1nc2cc(C(=O)O)ccc2nc1-c1ccc2scnc2c1 [Example 57, 2-(1,3-Benzothiazol-5-yl)-3-[(2S)-2-methylpyrrolidin-1-yl]quinoxaline-6-carboxylic acid]	< 10	< 10
CN(c1nc2cc(C(=O)O)ccc2nc1-c1cc2cc(F)ccc2o1)C1CC1 [Example 61, 3-[Cyclopropyl(methyl)amino]-2-(5-fluoro-1-benzofuran-2-yl)quinoxaline-6-carboxylic acid]	< 10	< 10
CC(C)N(C)c1nc2cc(C(=O)O)ccc2nc1-n1cnc2ccccc21 [Example 63, 2-(1H-Benzo[d]imidazol-1-yl)-3-(isopropyl(methyl)amino)quinoxaline-6-carboxylic acid]	< 10	< 10
CN(c1nc2cc(C(=O)O)ccc2nc1-c1ccc2[nH]ccc2c1)C1CC1 [Example 64, 3-[Cyclopropyl(methyl)amino]-2-(1H-indol-5-yl)quinoxaline-6-carboxylic acid]	< 10	< 10
C[C@H]1COCCN1c1nc2cc(C(=O)O)ccc2nc1-c1ccc2[nH]ccc2c1 [Example 66, (S)-2-(1H-Indol-5-yl)-3-(3-methylmorpholino)quinoxaline-6-carboxylic acid]	< 10	< 10
COC[C@H]1CCCN1c1nc2cc(C(=O)O)ccc2nc1-c1cc2cc(F)ccc2o1 [Example 68, 2-(5-Fluoro-1-benzofuran-2-yl)-3-[(2R)-2-(methoxymethyl)pyrrolidin-1-yl]quinoxaline-6-carboxylic acid]	< 10	< 10
CC[C@H](C)N(C)c1nc2cc(C(=O)O)ccc2nc1-c1cc2cc(F)ccc2o1 [Example 69, (S)-3-(sec-Butyl(methyl)amino)-2-(5-fluorobenzofuran-2-yl)quinoxaline-6-carboxylic acid]	< 10	< 10
C[C@H]1CCCCN1c1nc2cc(C(=O)O)ccc2nc1-c1ccc2[nH]ccc2c1 [Example 73, (S)-2-(1H-Indol-5-yl)-3-(2-methylpiperidin-1-yl)quinoxaline-6-carboxylic acid]	< 10	< 10
CC[C@@H](C)N(C)c1nc2cc(C(=O)O)ccc2nc1-c1cc2cc(F)ccc2o1 [Example 74, (R)-3-(sec-Butyl(methyl)amino)-2-(5-fluorobenzofuran-2-yl)quinoxaline-6-carboxylic acid]	< 10	< 10
Cc1cc2cc(-c3nc4ccc(C(=O)O)cc4nc3N3CCC[C@@H]3C)ccc2[nH]1 [Example 75, 2-(2-Methyl-1H-indol-5-yl)-3-[(2S)-2-methylpyrrolidin-1-yl]quinoxaline-6-carboxylic acid]	< 10	< 10
Cc1cc2cc(-c3nc4ccc(C(=O)O)cc4nc3N(C)C(C)C)ccc2[nH]1 [Example 76, 3-[Methyl(propan-2-yl)amino]-2-(2-methyl-M-indol-5-yl)quinoxaline-6-carboxylic acid]	< 10	< 10
CC(C)N(C)c1nc2cc(C(=O)O)ccc2nc1-c1ccc(-c2ccccc2)o1 [Example 77, 3-[Methyl(propan-2-yl)amino]-2-(5-phenylfuran-2-yl)quinoxaline-6-carboxylic acid]	< 10	< 10
CC(C)N(C)c1nc2cc(C(=O)O)ccc2nc1-c1cc[nH]c1 [Example 81, 3-[Methyl(propan-2-yl)amino]-2-(1H-pyrrol-3-yl)quinoxaline-6-carboxylic acid]	< 10	< 10
Cc1coc2ccc(-c3nc4ccc(C(=O)O)cc4nc3N(C)C(C)C)cc12 [Example 85, 3-[Methyl(propan-2-yl)amino]-2-(3-methyl-1-benzofuran-5-yl)quinoxaline-6-carboxylic acid]	< 10	< 10
